Test results as given in patent US20140073631A1 (priority 2012, published 2014).
Values after ≈ are worked out from the molar mass of the structure shown.

How the values were obtained:
Experiment in all cases: microbe, parasite or virus in culture
[1] = tested on: isoniazid (INH)-resistant Mtb (SRI 1369); type: cell-based, Mycobacterium tuberculosis; conditions: for MIC: Mycobacterium tuberculosis, read-out: MIC INH-R
[2] = tested on: rifampin (RMP)-resistant Mtb (SRI 1367); type: cell-based, Mycobacterium tuberculosis; conditions: for MIC: Mycobacterium tuberculosis, read-out: MIC RMP-R
[3] = tested on: ofloxacin (OFX)-resistant Mtb (SRI 4000); type: cell-based, Mycobacterium tuberculosis; conditions: for MIC: Mycobacterium tuberculosis, read-out: MIC OFX-R
[4] = tested on: ATCC 35837 Ethambutol Resistant; type: cell-based; conditions: Mycobacterium tuberculosis, ATCC35837, read-out: MIC Value, ATCC 35837 Ethambutol Resistant
[5] = tested on: ATCC 35830 Ethionamide Resistant; type: cell-based; conditions: Mycobacterium tuberculosis, ATCC35830, read-out: MIC Value, ATCC 35830 Ethionamide Resistant
[6] = tested on: ATCC 35827 Kanamycin Resistant; type: cell-based; conditions: Mycobacterium tuberculosis, ATCC35827, read-out: MIC Value, ATCC 35827 Kanamycin Resistant
[7] = tested on: ATCC 35822 Isoniazid Resistant; type: cell-based; conditions: Mycobacterium tuberculosis, ATCC35822, read-out: MIC Value, ATCC 35822 Isoniazid Resistant
[8] = tested on: ATCC 35821 Para-aminosalicylic Resistant; type: cell-based, Mycobacterium tuberculosis; conditions: for MIC: Mycobacterium tuberculosis, ATCC35821, read-out: MIC Value, ATCC 35821 Para-aminosalicylic Resistant
[9] = tested on: ATCC 35820 Streptomycin Resistant; type: cell-based; conditions: Mycobacterium tuberculosis, ATCC35820, read-out: MIC Value, ATCC 35820 Streptomycin Resistant

Structure (SMILES)	MIC [4] [µg/mL]	MIC [5] [µg/mL]	MIC [6] [µg/mL]	MIC [7] [µg/mL]	MIC [9] [µg/mL]	also measured
N=C(NCCCCCCNC(=N)NC(=N)N1CCN(c2cc3c(cc2F)c(=O)c(C(=O)O)cn3C2CC2)CC1)NC(=N)N1CCN(c2cc3c(cc2F)c(=O)c(C(=O)O)cn3C2CC2)CC1 [BVS-10A]						% inhibition at the MIC concentration [1]: 53%; MIC [1]: 1.56 µg/mL (≈ 1.71 µM); % inhibition at the MIC concentration [2]: 58%; MIC [2]: 6.25 µg/mL (≈ 6.85 µM); % inhibition at the MIC concentration [3]: 74%; MIC [3]: 0.781 µg/mL (≈ 0.855 µM)
CC1COc2c(N3CCN(C(=N)NC#N)CC3)c(F)cc3c(=O)c(C(=O)O)cn1c23 (stereo not drawn) [BVS-60C (XVII)]	0.625 (≈ 1.51 µM)	0.312 (≈ 0.753 µM)	0.625 (≈ 1.51 µM)	0.625 (≈ 1.51 µM)	0.312 (≈ 0.753 µM)	MIC [8]: 0.625 to 1.25 µg/mL (≈ 1.51 to 3.02 µM)
C[C@@H]1COc2c(N3CCN(C(=N)NC(=N)N4CCN(c5c(F)cc6c(=O)c(C(=O)O)cn7c6c5OC[C@@H]7C)CC4)CC3)c(F)cc3c(=O)c(C(=O)O)cn1c23 [BVS-76D (XVII)]	0.312 to 0.625 (≈ 0.41 to 0.82 µM)	0.156 (≈ 0.205 µM)	0.625 (≈ 0.82 µM)	0.625 (≈ 0.82 µM)	0.312 (≈ 0.41 µM)	MIC [8]: 0.625 to 1.25 µg/mL (≈ 0.82 to 1.64 µM)
C[C@@H]1COc2c(N3CCN(C(=N)NC(=N)NCCCCCCNC(=N)NC(=N)N4CCN(c5c(F)cc6c(=O)c(C(=O)O)cn7c6c5OC[C@@H]7C)CC4)CC3)c(F)cc3c(=O)c(C(=O)O)cn1c23 [BVS-85A (XVII)]	1.25 (≈ 1.32 µM)	0.625 (≈ 0.661 µM)	1.25 to 2.5 (≈ 1.32 to 2.65 µM)	1.25 (≈ 1.32 µM)	0.625 (≈ 0.661 µM)	MIC [8]: 2.5 µg/mL (≈ 2.65 µM)
CC[C@@H](CO)NCCN[C@@H](CC)CO [Ethambutol, reference compound]	> 8					
CCc1cc(C(N)=S)ccn1 [Ethionamide, reference compound]		> 8				
NNC(=O)c1ccncc1 [Isoniazid, isoniazid, reference compound]				> 8		% inhibition at the MIC concentration [2]: 86%; MIC [2]: 0.02 µg/mL (≈ 0.146 µM)
NC[C@H]1O[C@H](O[C@H]2[C@H](O)[C@@H](O[C@H]3O[C@H](CO)[C@@H](O)[C@H](N)[C@H]3O)[C@H](N)C[C@@H]2N)[C@H](O)[C@@H](O)[C@@H]1O [Kanamycin, reference compound]			> 8			
Nc1ccc(C(=O)O)c(O)c1 [Para-aminosalicylic, reference compound]						MIC Value, ATCC 35821 Para-aminosalicylic Resistant [8]: >8 µg/mL
CO[C@H]1/C=C/O[C@@]2(C)Oc3c(C)c(O)c4c(O)c(c(/C=N/N5CCN(C)CC5)c(O)c4c3C2=O)NC(=O)/C(C)=C\C=C\[C@H](C)[C@H](O)[C@@H](C)[C@@H](O)[C@@H](C)[C@H](OC(C)=O)[C@@H]1C [Rifampin, rifampin, reference compound]						% inhibition at the MIC concentration [1]: 67%; MIC [1]: 0.049 µg/mL (≈ 0.0595 µM); % inhibition at the MIC concentration [3]: 75%; MIC [3]: 0.195 µg/mL (≈ 0.237 µM)
[H]/N=C(/N)N[C@H]1[C@H](O)[C@@H](O)[C@H](O[C@@H]2O[C@@H](C)[C@](O)(C=O)[C@H]2O[C@@H]2O[C@@H](CO)[C@H](O)[C@@H](O)[C@@H]2NC)[C@@H](N/C(N)=N\[H])[C@@H]1O [Streptomycin, reference compound]					> 8	
